Patent publication US8586573B2, “N-(Aminoheteroaryl)-1H-indole-2-carboxamide derivatives, and preparation and therapeutic application thereof” (Sanofi, priority 2006, dated 2013)

Row | Compound | melting point [°C]
1 | COc1cc(N2CCCC2)ncc1NC(=O)c1cc2cc(F)ccc2n1Cc1ccncc1 [Compound 18, N-[4-methoxy-6-(pyrrolidin-1-yl)pyridin-3-yl]-5-fluoro-1-[(pyridin-4-yl)methyl]-1H-indole-2-carboxamide] | 225 to 226
2 | Cc1ccc2c(c1)cc(C(=O)Nc1ccc(N3CCC3)nc1)n2Cc1cccc(F)c1 [Compound 47, N-[6-(azetidin-1-yl)pyridin-3-yl]-5-methyl-1-(3-fluorobenzyl)-1H-indole-2-carboxamide] | 236 to 238
3 | O=C(Nc1ccc(N2CCC2)nc1)c1cc2cc(Cl)ccc2n1Cc1cccc(F)c1 [Compound 43, N-[6-(azetidin-1-yl)pyridin-3-yl]-5-chloro-1-(3-fluorobenzyl)-1H-indole-2-carboxamide] | 226 to 228
4 | CN(C)c1ccc2cc(C(=O)Nc3ccc(N4CCC4)nc3)n(Cc3cccc(F)c3)c2c1 [Compound 36, N-[6-(azetidin-1-yl)pyridin-3-yl]-6-dimethylamino-1-(3-fluorobenzyl)-1H-indole-2-carboxamide] | 256 to 258
5 | O=C(Nc1ccc(N2CCC2)nc1)c1cc2cc(F)ccc2n1Cc1ccccc1 [Compound 31, N-[6-(azetidin-1-yl)pyridin-3-yl]-5-fluoro-1-(benzyl)-1H-indole-2-carboxamide] | 208 to 210
6 | O=C(Nc1ccc(N2CCC2)nc1)c1cc2ccc(Cl)cc2n1Cc1cccc(F)c1 [Compound 42, N-[6-(azetidin-1-yl)pyridin-3-yl]-6-chloro-1-(3-fluorobenzyl)-1H-indole-2-carboxamide] | 218 to 220
7 | CC(C)c1ccc2c(c1)cc(C(=O)Nc1ccc(N3CCC3)nc1)n2Cc1cccc(F)c1 [Compound 48, N-[6-(azetidin-1-yl)pyridin-3-yl]-5-isopropyl-1-(3-fluorobenzyl)-1H-indole-2-carboxamide] | 204 to 206
8 | O=C(Nc1ccc(N2CCC2)nc1)c1cc2c(F)cccc2n1Cc1cccc(F)c1 [Compound 38, N-[6-(azetidin-1-yl)pyridin-3-yl]-4-fluoro-1-(3-fluorobenzyl)-1H-indole-2-carboxamide] | 214 to 216
9 | O=C(Nc1ccc(N2CCC2)nc1)c1cc2cccc(F)c2n1Cc1cccc(F)c1 [Compound 39, N-[6-(azetidin-1-yl)pyridin-3-yl]-7-fluoro-1-(3-fluorobenzyl)-1H-indole-2-carboxamide] | 244 to 246
10 | O=C(Nc1ccc(N2CCC2)nc1)c1cc2cc(C(F)(F)F)ccc2n1Cc1cccc(F)c1 [Compound 25, N-[6-(azetidin-1-yl)pyridin-3-yl]-5-trifluoromethyl-1-(3-fluorobenzyl)-1H-indole-2-carboxamide] | 222 to 224
11 | O=C(Nc1ccc(N2CC(O)C2)nc1)c1cc2cc(F)ccc2n1Cc1cccc(F)c1 [Compound 24, N-[6-(3-hydroxyazetidin-1-yl)pyridin-3-yl]-5-fluoro-1-(3-fluorobenzyl)-1H-indole-2-carboxamide] | 199 to 200
12 | CC(C)(C)c1ccc2c(c1)cc(C(=O)Nc1ccc(N3CCC3)nc1)n2Cc1cccc(F)c1 [Compound 49, N-[6-(azetidin-1-yl)pyridin-3-yl]-5-tert-butyl-1-(3-fluorobenzyl)-1H-indole-2-carboxamide] | 212 to 214
13 | O=C(Nc1ccc(N2CC(O)C2)nc1)c1cc2ccc(C(F)(F)F)cc2n1Cc1cccc(F)c1 [Compound 30, N-[6-(3-hydroxyazetidin-1-yl)pyridin-3-yl]-1-(3-fluorobenzyl)-6-trifluoromethyl-1H-indole-2-carboxamide] | 253 to 255
14 | O=C(Nc1ccc(N2CCC2)nc1)c1cc2cc(F)ccc2n1Cc1ccncc1 [Compound 26, N-[6-(azetidin-1-yl)pyridin-3-yl]-1-[(pyridin-4-yl)methyl]-5-fluoro-1H-indole-2-carboxamide] | 212 to 214
15 | O=C(Nc1ccc(N2CC3CCC3C2)nc1)c1cc2cc(F)ccc2n1Cc1cccc(F)c1 (stereo not shown) [Compound 22, N-[6-(3-azabicyclo[3.2.0]hept-3-yl)pyridin-3-yl]-5-fluoro-1-(3-fluorobenzyl)-1H-indole-2-carboxamide] | 163 to 165
16 | CC(C)Oc1ccc2cc(C(=O)Nc3ccc(N4CCC4)nc3)n(Cc3cccc(F)c3)c2c1 [Compound 34, N-[6-(azetidin-1-yl)pyridin-3-yl]-6-isopropyloxy-1-(3-fluorobenzyl)-1H-indole-2-carboxamide] | 198 to 200

Row | Compound | melting point [°C]
17 | CCc1ccc2cc(C(=O)Nc3ccc(N4CCC4)nc3)n(Cc3cccc(F)c3)c2c1 [Compound 50, N-[6-(azetidin-1-yl)pyridin-3-yl]-6-ethyl-1-(3-fluorobenzyl)-1H-indole-2-carboxamide] | 196 to 198
18 | Cc1ccc2cc(C(=O)Nc3ccc(N4CCC4)nc3)n(Cc3cccc(F)c3)c2c1 [Compound 46, N-[6-(azetidin-1-yl)pyridin-3-yl]-6-methyl-1-(3-fluorobenzyl)-1H-indole-2-carboxamide] | 228 to 230
19 | Cc1cccc2c1cc(C(=O)Nc1ccc(N3CCC3)nc1)n2Cc1cccc(F)c1 [Compound 45, N-[6-(azetidin-1-yl)pyridin-3-yl]-4-methyl-1-(3-fluorobenzyl)-1H-indole-2-carboxamide] | 246 to 248
20 | Cc1cc(Cn2c(C(=O)Nc3ccc(N4CCCC4)nc3)cc3cc(F)ccc32)ccn1 [Compound 19, N-[6-(pyrrolidin-1-yl)pyridin-3-yl]-5-fluoro-1-[(2-methylpyridin-4-yl)methyl]-1H-indole-2-carboxamide] | 213 to 215
21 | O=C(Nc1ccc(N2CCC2)nc1)c1cc2ccccc2n1Cc1cccc(F)c1 [Compound 44, N-[6-(azetidin-1-yl)pyridin-3-yl]-1-(3-fluorobenzyl)-1H-indole-2-carboxamide] | 328 to 330
22 | CS(=O)(=O)c1ccc2c(c1)cc(C(=O)Nc1ccc(N3CCC3)nc1)n2Cc1cccc(F)c1 [Compound 35, N-[6-(azetidin-1-yl)pyridin-3-yl]-5-methylsulphonyl-1-(3-fluorobenzyl)-1H-indole-2-carboxamide] | 258 to 260
23 | O=C(Nc1ccc(N2CC(O)C2)nc1)c1cc2cc(C(F)(F)F)ccc2n1Cc1cccc(F)c1 [Compound 29, N-[6-(3-hydroxyazetidin-1-yl)pyridin-3-yl]-1-(3-fluorobenzyl)-5-trifluoromethyl-1H-indole-2-carboxamide] | 194 to 196
24 | O=C(Nc1ccc(N2CCC2)nc1)c1cc2ccc(F)cc2n1Cc1cccc(F)c1 [Compound 40, N-[6-(azetidin-1-yl)pyridin-3-yl]-6-fluoro-1-(3-fluorobenzyl)-1H-indole-2-carboxamide] | 210 to 212
25 | CC(C)c1ccc2cc(C(=O)Nc3ccc(N4CCC4)nc3)n(Cc3cccc(F)c3)c2c1 [Compound 51, N-[6-(azetidin-1-yl)pyridin-3-yl]-6-isopropyl-1-(3-fluorobenzyl)-1H-indole-2-carboxamide] | 184 to 186
26 | O=C(Nc1cnc(N2CCCC2)cc1C(F)(F)F)c1cc2cc(F)ccc2n1Cc1cccc(F)c1 [Compound 53, N-[6-(pyrrolidin-1-yl)-4-(trifluoromethyl)pyridin-3-yl]-5-fluoro-1-(3-fluorobenzyl)-1H-indole-2-carboxamide] | 170 to 171
27 | Cc1cc(C)c2cc(C(=O)Nc3ccc(N4CCC4)nc3)n(Cc3cccc(F)c3)c2c1 [Compound 32, N-[6-(azetidin-1-yl)pyridin-3-yl]-4,6-dimethyl-1-(3-fluorobenzyl)-1H-indole-2-carboxamide] | 234 to 236
28 | O=C(Nc1ccc(N2CCC2)nc1)c1cc2c(Cl)cccc2n1Cc1cccc(F)c1 [Compound 41, N-[6-(azetidin-1-yl)pyridin-3-yl]-4-chloro-1-(3-fluorobenzyl)-1H-indole-2-carboxamide] | 226 to 228
29 | CSc1ccc2cc(C(=O)Nc3ccc(N4CCC4)nc3)n(Cc3cccc(F)c3)c2c1 [Compound 37, N-[6-(azetidin-1-yl)pyridin-3-yl]-6-methylthio-1-(3-fluorobenzyl)-1H-indole-2-carboxamide] | 206 to 208
30 | CC(C)(C)c1ccc2cc(C(=O)Nc3ccc(N4CCC4)nc3)n(Cc3cccc(F)c3)c2c1 [Compound 33, N-[6-(azetidin-1-yl)pyridin-3-yl]-6-tert-butyl-1-(3-fluorobenzyl)-1H-indole-2-carboxamide] | 204 to 206
31 | O=C(Nc1ccc(N2CCC2)nc1)c1cc2ccc(C(F)(F)F)cc2n1Cc1cccc(F)c1 [Compound 52, N-[6-(azetidin-1-yl)pyridin-3-yl]-6-trifluoromethyl-1-(3-fluorobenzyl)-1H-indole-2-carboxamide] | 220 to 222
